From ChEMBL document CHEMBL1147448, “New substituted triaza-benzo[cd]azulen-9-ones as promising phosphodiesterase-4 inhibitors” (Bioorg Med Chem Lett, 2004) come the findings set out here.

The target in one test is Phosphodiesterase 3 (Homo sapiens, UniProt Q14432+Q13370). The test is described as follows: Inhibition of phosphodiesterase 3. In kind it is protein assay, Canis lupus familiaris.
A further test has as its target Phosphodiesterase 4 (Homo sapiens, UniProt P27815+Q08499+Q07343+Q08493). The test can be described thus: Inhibition of phosphodiesterase 4. It is filed as protein assay.
In a further test the target is Phosphodiesterase 1 (Homo sapiens, UniProt P54750+Q01064+Q14123). The test is described as follows: Inhibition of Phosphodiesterase 1. In kind it is protein assay, Cavia porcellus.

For `COc1cc2c3c(c1)C(c1ccccc1)=NCC(=O)N3CC2`, the IC50 on Phosphodiesterase 3 was 77 µM; against Phosphodiesterase 4, 40 µM; against Phosphodiesterase 1 it was 52 µM.
Take `Nc1cc2c3c(c1)C(c1ccccc1)=N[C@@H](NC(=O)c1ccncc1)C(=O)N3CC2`: the IC50 at Phosphodiesterase 4 worked out at 0.27 µM.
Consider `COc1cc2c3c(n1)C(c1ccccc1)=NCC(=O)N3CC2`, for which the IC50 was over 100 µM against Phosphodiesterase 3, 23 µM at Phosphodiesterase 4 and over 100 µM against Phosphodiesterase 1.
Turning to `COc1cc2c3c(n1)C(c1ccccc1)=N[C@@H](NC(=O)c1cccnc1)C(=O)N3CC2`, the IC50 against Phosphodiesterase 3 came to 12 µM; at Phosphodiesterase 4 it was 6.1 µM; against Phosphodiesterase 1, 14 µM.
In turn, `COc1cc2c3c(c1)C(c1ccccc1)=N[C@@H](NC(=O)c1ccncc1)C(=O)N3CC2` showed an IC50 on Phosphodiesterase 1 of 16 µM.
Regarding `COc1cc2c3c(n1)C(c1ccccc1)=NC(NC(=O)c1cccnc1)C(=O)N3CC2` (single isomer, unassigned), the IC50 on Phosphodiesterase 3 is over 100 µM; against Phosphodiesterase 4, 73 µM; at Phosphodiesterase 1 it was 28 µM.
In the same order, the values of `COc1cc2c3c(n1)C(c1ccccc1)=NC(NC(=O)c1cccnc1)C(=O)N3CC2` (stereo in doubt) are 31 µM, 4.3 µM and 5.8 µM.

A word on the IC50: it is the point on the concentration scale where inhibition reaches its midpoint.
